Test results taken from ChEMBL document CHEMBL1201862, “PubChem BioAssay data set” (2004).
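Five concentrations, 48 hours, 96-well plates. GI50 is the concentration that inhibits growth by half.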 Calls of active or inactive are those of the source. Rule as the data show it: active = GI50 up to about 1.1 µM and inactive = higher.

What was measured:
Test in all cases: DTP human tumour cell line panel, 48 h
[1] = tested on: TK-10
[2] = tested on: OVCAR-3
[3] = tested on: NCI-H460
[4] = tested on: MDA-MB-231
[5] = tested on: HCT-116
[6] = tested on: SW-620
[7] = tested on: HCT-15
[8] = tested on: SK-MEL-28
[9] = tested on: SF-268
[10] = tested on: SNB-19
[11] = tested on: A549
[12] = tested on: U-251
[13] = tested on: LOX IMVI
[14] = tested on: SK-MEL-2
[15] = tested on: PC-3
[16] = tested on: Malme-3M
[17] = tested on: NCI-H226
[18] = tested on: SK-MEL-5
[19] = tested on: HOP-62
[20] = tested on: RPMI-8226

| Compound | GI50 [1] | GI50 [2] | GI50 [3] | GI50 [4] | GI50 [5] | GI50 [6] | GI50 [7] [µM] | GI50 [8] | GI50 [9] | GI50 [10] | GI50 [11] | GI50 [12] | GI50 [13] | GI50 [14] | GI50 [15] | GI50 [16] | GI50 [17] | GI50 [18] | GI50 [19] | GI50 [20] |
| --- | --- | --- | --- | --- | --- | --- | --- | --- | --- | --- | --- | --- | --- | --- | --- | --- | --- | --- | --- | --- |
| O=c1c2ccccc2n2c(S)nnc2n1-c1ccccc1 | > 100 µM (inactive) | > 100 µM (inactive) | > 100 µM (inactive) | > 100 µM (inactive) | > 100 µM (inactive) | > 100 µM (inactive) | > 100 | > 100 µM (inactive) | > 100 µM (inactive) | > 100 µM (inactive) | > 100 µM (inactive) | > 100 µM (inactive) | > 100 µM (inactive) | > 100 µM (inactive) | > 100 µM (inactive) | > 100 µM (inactive) | > 100 µM (inactive) | > 100 µM (inactive) | > 100 µM (inactive) | – |
| CC(C)=C1C2CC3(C)CCC2(C)CCC13.CC1=CCC2C3(C)CCC2(C(C)C)C1C3 (stereo not drawn) | 25.5 µM (inactive) | 16.5 µM (inactive) | 17.2 µM (inactive) | 22 µM (inactive) | 31.6 µM (inactive) | 23.7 µM (inactive) | 16.9 | 34.2 µM (inactive) | 19.3 µM (inactive) | 18.4 µM (inactive) | 19.7 µM (inactive) | 23.4 µM (inactive) | 28.8 µM (inactive) | 17.5 µM (inactive) | 39.3 µM (inactive) | 43.8 µM (inactive) | – | 10 µM (inactive) | 22.3 µM (inactive) | 24.9 µM (inactive) |
| COC(=O)C1=CC2C(=O)c3ccccc3C1(c1ccccc1)N2C1CCCCC1 (stereo not drawn) | 30.1 µM (inactive) | 23.6 µM (inactive) | 14.8 µM (inactive) | 17 µM (inactive) | 25.1 µM (inactive) | 27.2 µM (inactive) | 27 | 17.6 µM (inactive) | 27.2 µM (inactive) | 39.9 µM (inactive) | 20 µM (inactive) | 16.6 µM (inactive) | 15.5 µM (inactive) | 12.3 µM (inactive) | 9.62 µM (inactive) | 22.6 µM (inactive) | 24.7 µM (inactive) | 10.1 µM (inactive) | 16.7 µM (inactive) | – |
| CCOC(=O)C1(C/C=C/CCl)CCCC1=O (stereo not drawn) | 21.1 µM (inactive) | – | 30.1 µM (inactive) | 16.6 µM (inactive) | 17.2 µM (inactive) | 20.3 µM (inactive) | 18.9 | 23 µM (inactive) | 25.4 µM (inactive) | 23 µM (inactive) | 21.5 µM (inactive) | 24.5 µM (inactive) | 14.9 µM (inactive) | 19 µM (inactive) | 30.5 µM (inactive) | 22.5 µM (inactive) | 14.3 µM (inactive) | 15.6 µM (inactive) | 20.5 µM (inactive) | – |
| CC1(C)OC[C@@H](/C=C\CCO[Si](c2ccccc2)(c2ccccc2)C(C)(C)C)N1C(=O)c1ccccc1 | 11.2 µM (inactive) | 7.5 µM (inactive) | 3.79 µM (inactive) | 10.9 µM (inactive) | 3.41 µM (inactive) | 14.5 µM (inactive) | 5.13 | 30.3 µM (inactive) | 13.9 µM (inactive) | 17.9 µM (inactive) | 3.59 µM (inactive) | 12.7 µM (inactive) | 13.6 µM (inactive) | 5.24 µM (inactive) | 4.07 µM (inactive) | – | 7.94 µM (inactive) | 2.51 µM (inactive) | 25.4 µM (inactive) | 2.86 µM (inactive) |
| O=C(/C(=C/c1cccs1)c1ccccc1)c1ccccc1 | > 100 µM (inactive) | > 100 µM (inactive) | > 100 µM (inactive) | 23.4 µM (inactive) | > 100 µM (inactive) | > 100 µM (inactive) | > 100 | > 100 µM (inactive) | > 100 µM (inactive) | 30.5 µM (inactive) | 54.2 µM (inactive) | 77.1 µM (inactive) | > 100 µM (inactive) | 40.2 µM (inactive) | 25.6 µM (inactive) | – | > 100 µM (inactive) | > 100 µM (inactive) | 7.21 µM (inactive) | > 100 µM (inactive) |
